Laboratory results from publication PMC7255801, “Disease-associated mutations in the human TRPM3 render the channel overactive via two distinct mechanisms” (eLife, 2020).

Tests used:
wild-type hTRPM3α2 = target: T1, wild-type hTRPM3α2 (Homo sapiens, UniProt Q9HCF6); assay: Intracellular Ca2+ assay (GCaMP6f) in 96-well plates, HEK293 cells, wild type channel; format: cell-based
T1 construct: host or cells: HEK293
Procedure: Intracellular Ca^2+ measurements were performed using a Flexstation-3 96‐well plate reader with rapid well injection (Molecular Devices) as described earlier ([Hughes et al., 2019]) with some modifications. Briefly Human Embryonic Kidney 293 (HEK293) cells were purchased from American Type Culture Collection (ATCC), Manassas, VA, (catalogue number CRL-1573), RRID:CVCL_0045; cell identity was verified by STR analysis by ATCC. HEK293 cells were cultured in MEM supplemented with 10% FBS and 100 IU/ml penicillin plus 100 µg/ml streptomycin in 5% CO2 at 37°C. Additional cell authentication was not performed, but passage number of the cells was monitored, and cells were used up to passage number 25–30 from purchase, when a new batch of cells was thawed with low passage number; cells were tested for the lack of mycoplasma infection. HEK293 cells were transfected with hTRPM3α2-GFP, or its mutants (200 ng) and GCaMP6 (1 μg) using the Effectene reagent (Qiagen). […] GCaMP6 signal was measured at excitation wavelengths 485 nm and fluorescence emission was detected at 525 nm. Sampling interval was 0.86 s and four parallel reads were performed for each condition. […] For measurements at 37°C the MEM medium used to culture the cells was replaced with the measurement solution preheated to 37°C, and the plate was placed in the plate reader warmed to 37°C using its built-in temperature controller.

non-injected oocytes = assay: Two electrode voltage clamp in non-injected oocytes; format: cell-based, Xenopus laevis; conditions: 50 μM, n = 5
Procedure: Xenopus laevis oocytes were prepared as described earlier ([Badheka et al., 2015]). All animal procedures were approved by the Institutional Animal Care and Use Committee at Rutgers New Jersey Medical School. In brief, frogs were anesthetized in 0.25% ethyl 3-aminobenzoate methanesulfonate solution (MS222; Sigma-Aldrich); bags of ovaries were removed surgically from the anesthetized frogs. Individual oocytes were obtained by overnight digestion at 16°C in 0.2–0.3 mg/ml type 1A collagenase (Sigma-Aldrich), dissolved in a solution containing 82.5 mM NaCl, 2 mM KCl, 1 mM MgCl2, and […] HEPES, pH 7.4 (OR2 solution). The next day the collagenase containing solution was discarded and the oocytes were washed multiple times with OR2 solution. […]
Two electrode voltage clamp experiments were performed as described ([Badheka et al., 2015]). In brief, oocytes were placed in extracellular solution (97 mM NaCl, 2 mM KCl, 1 mM MgCl2, and […] HEPES, pH 7.4), and currents were recorded with thin-wall inner filament– containing glass pipettes (World Precision Instruments) filled with 3 M KCl in 1% agarose. Currents were measured with a ramp protocol from −100 to 100 mV once every 0.5 s with a GeneClamp 500B amplifier and analyzed with the pClamp 9.0 software (Molecular Devices). […]

T1 sequence (Q9HCF6 1-1709 isoform Q9HCF6-5): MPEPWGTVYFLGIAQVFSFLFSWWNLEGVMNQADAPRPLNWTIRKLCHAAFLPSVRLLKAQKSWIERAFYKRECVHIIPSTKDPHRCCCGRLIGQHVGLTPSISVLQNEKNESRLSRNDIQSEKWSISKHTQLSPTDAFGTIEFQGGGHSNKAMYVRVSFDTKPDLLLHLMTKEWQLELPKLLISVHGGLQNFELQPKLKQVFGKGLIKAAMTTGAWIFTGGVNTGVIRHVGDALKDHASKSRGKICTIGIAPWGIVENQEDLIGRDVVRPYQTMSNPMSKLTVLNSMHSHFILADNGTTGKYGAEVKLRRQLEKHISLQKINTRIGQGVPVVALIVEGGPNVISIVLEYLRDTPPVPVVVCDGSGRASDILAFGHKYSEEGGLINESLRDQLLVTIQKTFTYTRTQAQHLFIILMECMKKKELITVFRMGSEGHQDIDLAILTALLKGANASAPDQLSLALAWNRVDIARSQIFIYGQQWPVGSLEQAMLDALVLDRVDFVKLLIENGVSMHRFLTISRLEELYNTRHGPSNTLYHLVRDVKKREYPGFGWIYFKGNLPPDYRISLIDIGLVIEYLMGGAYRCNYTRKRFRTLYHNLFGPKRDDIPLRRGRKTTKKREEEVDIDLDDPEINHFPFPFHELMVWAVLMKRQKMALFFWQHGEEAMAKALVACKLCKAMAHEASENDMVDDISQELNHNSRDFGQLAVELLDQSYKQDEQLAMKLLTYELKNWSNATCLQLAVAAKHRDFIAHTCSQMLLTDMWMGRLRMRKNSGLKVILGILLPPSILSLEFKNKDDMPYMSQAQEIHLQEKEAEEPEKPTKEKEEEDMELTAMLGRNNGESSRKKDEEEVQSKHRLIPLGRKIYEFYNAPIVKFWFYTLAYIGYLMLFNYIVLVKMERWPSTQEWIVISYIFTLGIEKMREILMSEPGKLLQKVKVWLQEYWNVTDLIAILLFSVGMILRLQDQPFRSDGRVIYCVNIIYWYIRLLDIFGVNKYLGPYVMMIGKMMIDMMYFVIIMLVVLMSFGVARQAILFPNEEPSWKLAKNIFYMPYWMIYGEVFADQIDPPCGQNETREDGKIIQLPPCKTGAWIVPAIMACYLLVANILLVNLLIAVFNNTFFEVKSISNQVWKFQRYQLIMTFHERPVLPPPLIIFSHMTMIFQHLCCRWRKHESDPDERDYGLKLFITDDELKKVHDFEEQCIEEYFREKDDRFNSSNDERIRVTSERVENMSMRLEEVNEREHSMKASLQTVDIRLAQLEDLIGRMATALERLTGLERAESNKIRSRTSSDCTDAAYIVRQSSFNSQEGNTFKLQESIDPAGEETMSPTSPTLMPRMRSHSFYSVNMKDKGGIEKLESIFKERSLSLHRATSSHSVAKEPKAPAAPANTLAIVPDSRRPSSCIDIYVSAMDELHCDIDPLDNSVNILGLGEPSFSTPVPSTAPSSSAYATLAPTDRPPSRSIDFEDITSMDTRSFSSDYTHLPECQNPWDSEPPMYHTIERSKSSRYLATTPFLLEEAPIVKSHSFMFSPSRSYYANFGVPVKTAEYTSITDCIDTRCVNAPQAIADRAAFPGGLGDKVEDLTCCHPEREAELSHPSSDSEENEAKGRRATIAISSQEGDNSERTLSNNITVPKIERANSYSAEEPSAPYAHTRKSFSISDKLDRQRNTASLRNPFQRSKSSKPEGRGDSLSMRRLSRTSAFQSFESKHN

Effect on basal cytoplasmic Ca2+ levels (wild-type hTRPM3α2; wild type TRPM3, room temperature (21°C)): no effect
Effect on basal Ca2+ levels at 37°C (wild-type hTRPM3α2; wild type channels, 50 μM, 37°C): reduced basal Ca^2+ levels
Structure (SMILES): CCC1(c2ccccc2)C(=O)NCNC1=O [primidone]
Inhibition of basal current (non-injected oocytes): did not induce any inhibition
